Assay results reported in patent publication US7790899B2, “Synthesis of N-(4-fluorobenzyl)-N-(1-methylpiperidin-4-yl)-N′-(4-(2-methylpropyloxy)phenylmethyl)carbamide and its tartrate salt and crystalline forms” (ACADIA Pharmaceuticals, Inc., priority 2004, dated 2010).
Structures can show the parent of a compound that is named as a salt. Where two headings read alike, the source gives them in different places.

Columns and labels:
[1] = Particle size distribution; format: physicochemical
[2] = Stability test, exposure to humidity (open containers, 60° C., 75% relative humidity); format: physicochemical; conditions: 1 week and 2 weeks
Procedure: (§1) HPLC: HPLC measurements were carried out with a HP LC1090M, Column Symmetry C18, 3.0·150 mm.
The compounds of Examples 3(b) (polymorph A), 25 (polymorph B), and 36 (polymorph C) were placed in open containers and exposed 1 week and 2 weeks at 60° C. and 75% relative humidity. In polymorph A, a water content of 2.8% was detected and the HPLC purity was 80%.

[3] = Stability test, thermal treatment (sealed ampoules, 100° C., HPLC purity); format: physicochemical; conditions: 1 week
Procedure: as §1
The compounds of Examples 3(b) (polymorph A), 25 (polymorph B), and 36 (polymorph C) were placed in sealed ampoules and exposed for 1 week to 100° C. […] The products where analyzed by HPLC and the purity was detected to indicate chemical stability via decomposition.

[4] = Stability of the crystal forms (general findings); format: physicochemical
[5] = Water absorption and behaviour on exposure to relative humidity; format: physicochemical
[6] = Solubility statements in the description
[7] = Stability of crystalline Form C at 75% RH and 40° C.; format: physicochemical; parameters: key to Powder X-Ray Diffraction (PXRD): C = Conforms with Reference; conditions: 40° C./75% RH
Procedure: (§2) A first batch of crystalline Form C was exposed to 60% RH (relative humidity) at 25° C. for 12 months and a second batch was exposed to 75% RH at 40° C. for 6 months. No changes in polymorphic purities were observed under all the conditions tested, and Form C was the only polymorph detected. The batches were tested for appearance, Total Drug Assay, Related Substances, moisture, and the presence of Impurity D. Appearance of the bulk drug substance was evaluated by visual inspection for color homogeneity, foreign material and texture. Total Drug Assay was determined on an HPLC system with UV detection at 226 nm. A Waters XTerra RP185 μm (4.6×250 mm) column was used at 30° C. The mobile phase was acetonitrile: 5 mM ammonium acetate, pH 10.0 (46:54 v/v). The injection volume aws 20 μL. The run time was 30 min with a flow rate of 1.0 mL/min. Related Substances were analyzed utilizing gradient reversed-phase HPLC with UV detection at 226 nm. A Waters Symmetry C183.5 μm, (150×4.6 mm) column was used at 35° C. Mobile phase A was water with 0.1% TFA and mobile phase B was acetonitrile with 0.1% TFA. The injection volume was 20 μL. The run time was 35 min with a flow rate of 1.0 mL/min. Related substances were quantitated by peak area percent. Moisture was determined with a 737 Karl Fischer Coulometric titrator. The apparatus was operated using Hydranal-Coulomat AG and Hydranal standard-0.1% water check solution-Coulomat AG.

[8] = Stability of crystalline Form C at 60% RH and 25° C.; format: physicochemical; parameters: key to Powder X-Ray Diffraction (PXRD): C = Conforms with Reference; conditions: for Assay (Active Ingredient %) / Individual Related Substances (%) / Moisture, KF (%) / Powder X-Ray Diffraction (PXRD) / Product Appearance / Total Related Substances (%) / Impurity D: 25° C./60% RH
Procedure: as §2

[9] = Approximate solubility of the crystalline free base in solvents at room temperature; format: physicochemical

CC(C)COc1ccc(CNC(=O)N(Cc2ccc(F)cc2)C2CCN(C)CC2)cc1 [Example 56, N-(4-fluorobenzyl)-N-(1-methylpiperidin-4-yl)-N′-(4-(2-methylpropyloxy)phenylmethyl)carbamide hemi-tartrate]
diameter of about 10% of the particles [1]: ≤ 5 μm | diameter of about 50% of the particles [1]: ≤ 18 μm | diameter of about 90% of the particles [1]: ≤ 35 μm

CC(C)COc1ccc(CNC(=O)N(Cc2ccc(F)cc2)C2CCN(C)CC2)cc1 [Example 60, N-(4-fluorobenzyl)-N-(1-methylpiperidin-4-yl)-N′-(4-(2-methylpropyloxy)phenylmethyl)carbamide tartrate]
diameter of about 10% of the particles [1]: ≤ 9 μm | diameter of about 50% of the particles [1]: ≤ 30 μm | diameter of about 90% of the particles [1]: ≤ 55 μm

CC(C)COc1ccc(CNC(=O)N(Cc2ccc(F)cc2)C2CCN(C)CC2)cc1.CC(C)COc1ccc(CNC(=O)N(Cc2ccc(F)cc2)C2CCN(C)CC2)cc1.O=C(O)C(O)C(O)C(=O)O [Form B, N-(4-fluorobenzyl)-N-(1-methylpiperidin-4-yl)-N′-(4-(2-methylpropyloxy)phenylmethyl)carbamide hemi-tartrate]
Change of crystal form after exposure to humidity [2]: transformed to polymorph C | HPLC purity after exposure to humidity ([2]; listed as polymorph B): 94.6% | water content after exposure to humidity ([2]; listed as polymorph B): 1.9% | HPLC purity after thermal treatment ([3]; listed as polymorph B): 28.3% | Stability at ambient temperatures ([4]; ambient temperatures): stable | Water uptake when exposed to high humidity ([5]; above 80% relative humidity): considerable water uptake | Stability under ambient water partial pressures ([5]; relative humidities between 20% and 75%): sufficient stability

CC(C)COc1ccc(CNC(=O)N(Cc2ccc(F)cc2)C2CCN(C)CC2)cc1 [Form C, N-(4-fluorobenzyl)-N-(1-methylpiperidin-4-yl)-N′-(4-(2-methylpropyloxy)phenylmethyl)carbamide hemi-tartrate]
Change of crystal form after exposure to humidity [2]: remained unchanged | HPLC purity after exposure to humidity [2]: 99.7% | aqueous solubility ([6]; depends on the pH in aqueous environments): 50 to 100 mg/mL | Solubility in water or aqueous systems (in words) [6]: very high | Assay (Active Ingredient %) ([7]; 0 M): 99.8% | Individual Related Substances (%) ([7]; 0 M): 0.06% | Moisture, KF (%) ([7]; 0 M): 0.3% | Powder X-Ray Diffraction (PXRD) ([7]; 0 M): C | Total Related Substances (%) ([7]; 0 M): 0.06% | Assay (Active Ingredient %) ([7]; 1 M): 99.8% | Individual Related Substances (%) ([7]; 1 M): 0.05% | Moisture, KF (%) ([7]; 1 M): <0.1% | Powder X-Ray Diffraction (PXRD) ([7]; 1 M): C | Total Related Substances (%) ([7]; 1 M): 0.05% | Assay (Active Ingredient %) ([7]; 3 M): 99.5% | Individual Related Substances (%) ([7]; 3 M): <0.05% | Moisture, KF (%) ([7]; 3 M): <0.1% | Total Related Substances (%) ([7]; 3 M): <0.05% | Assay (Active Ingredient %) ([7]; 6 M): 99.7% | Individual Related Substances (%) ([7]; 6 M): 0.23% | Moisture, KF (%) ([7]; 6 M): 0.1% | Powder X-Ray Diffraction (PXRD) ([7]; 6 M): C | Total Related Substances (%) ([7]; 6 M): 0.23% | HPLC purity after thermal treatment [3]: 99.7% | State of the material after thermal treatment [3]: substantially unchanged | Stability compared with all found crystal forms [4]: most stable form | Assay (Active Ingredient %) ([8]; 0 M): 99.8% | Individual Related Substances (%) ([8]; 0 M): 0.06% | Moisture, KF (%) ([8]; 0 M): 0.3% | Powder X-Ray Diffraction (PXRD) ([8]; 0 M): C | Product Appearance ([8]; 0 M): Conforms | Total Related Substances (%) ([8]; 0 M): 0.06% | Assay (Active Ingredient %) ([8]; 1 M): 99.8% | Individual Related Substances (%) ([8]; 1 M): 0.05% | Moisture, KF (%) ([8]; 1 M): <0.1% | Powder X-Ray Diffraction (PXRD) ([8]; 1 M): C | Product Appearance ([8]; 1 M): Conforms | Total Related Substances (%) ([8]; 1 M): 0.05% | Assay (Active Ingredient %) ([8]; 3 M): 99.7% | Individual Related Substances (%) ([8]; 3 M): <0.05% | Moisture, KF (%) ([8]; 3 M): <0.1% | Product Appearance ([8]; 3 M): Conforms | Total Related Substances (%) ([8]; 3 M): <0.05% | Assay (Active Ingredient %) ([8]; 6 M): 99.8% | Individual Related Substances (%) ([8]; 6 M): 0.06% | Moisture, KF (%) ([8]; 6 M): 0.2% | Powder X-Ray Diffraction (PXRD) ([8]; 6 M): C | Product Appearance ([8]; 6 M): Conforms | Total Related Substances (%) ([8]; 6 M): <0.06% | Assay (Active Ingredient %) ([8]; 9 M): 99.4% | Impurity D ([8]; 9 M): 0.2 | Individual Related Substances (%) ([8]; 9 M): <0.05% | Moisture, KF (%) ([8]; 9 M): <0.1% | Powder X-Ray Diffraction (PXRD) ([8]; 9 M): C | Product Appearance ([8]; 9 M): Conforms | Total Related Substances (%) ([8]; 9 M): <0.05% | Assay (Active Ingredient %) ([8]; 12 M): 99.1% | Impurity D ([8]; 12 M): 0.2 | Individual Related Substances (%) ([8]; 12 M): 0.05% | Moisture, KF (%) ([8]; 12 M): <0.1% | Powder X-Ray Diffraction (PXRD) ([8]; 12 M): C | Product Appearance ([8]; 12 M): Conforms | Total Related Substances (%) ([8]; 12 M): 0.05% | Changes in polymorphic purities ([8]; 60% RH at 25° C. for 12 months and 75% RH at 40° C. for 6 months): No changes | Dynamic pour absorption experiments: water absorption [5]: does not absorb water | Stability in an open container ([5]; 75% relative humidity): stable | Deliquescence or hygroscopicity ([5]; about 95% relative humidity): no deliquescence or hygroscopicity | Water absorption ([5]; at about 95% relative humidity): about 1%

CC(C)COc1ccc(CNC(=O)N(Cc2ccc(F)cc2)C2CCN(C)CC2)cc1 [Form D, N-(4-fluorobenzyl)-N-(1-methylpiperidin-4-yl)-N′-(4-(2-methylpropyloxy)phenylmethyl)carbamide hemi-tartrate]
Stability in an open container ([5]; 53% relative humidity): stable

CC(C)COc1ccc(CNC(=O)N(Cc2ccc(F)cc2)C2CCN(C)CC2)cc1 [crystalline free base of formula I, N-(4-fluorobenzyl)-N-(1-methylpiperidin-4-yl)-N′-(4-(2-methylpropyloxy)phenylmethyl)carbamide]
solubility ([9]; acetonitrile): <50 mg/mL | solubility ([9]; ethyl acetate): <30 mg/mL | solubility ([9]; organic solvent or mixture, 1,4-dioxane, read-out: Solubility): 140 mg/mL | solubility ([9]; organic solvent or mixture, acetone, read-out: Solubility): 100 mg/mL | solubility ([9]; organic solvent or mixture, dichloromethane, read-out: Solubility): > 500 mg/mL | solubility ([9]; organic solvent or mixture, ethanol, read-out: Solubility): 260 mg/mL | solubility ([9]; organic solvent or mixture, isopropanol, read-out: Solubility): 100 mg/mL | solubility ([9]; organic solvent or mixture, methanol, read-out: Solubility): 170 mg/mL | solubility ([9]; organic solvent or mixture, tetrahydrofuran, read-out: Solubility): > 250 mg/mL | solubility ([9]; toluene): <70 mg/mL | solubility ([9]; water, read-out: Solubility): < 4 mg/mL

CC(C)COc1ccc(CNC(=O)N(Cc2ccc(F)cc2)C2CCN(C)CC2)cc1 [formula I, N-(4-fluorobenzyl)-N-(1-methylpiperidin-4-yl)-N′-(4-(2-methylpropyloxy)phenylmethyl)carbamide]
Solubility in water or aqueous systems (in words) [6]: low solubility

CC(C)COc1ccc(CNC(=O)N(Cc2ccc(F)cc2)C2CCN(C)CC2)cc1 [formula IV, N-(4-fluorobenzyl)-N-(1-methylpiperidin-4-yl)-N′-(4-(2-methylpropyloxy)phenylmethyl)carbamide hemi-tartrate]
Solubility in water or aqueous systems (in words) [6]: very good solubility
